Assay results published in the supplement of paper PMC10331698.
± gives the standard deviation of the averaged measurements.

Columns and labels:
Assay in all cases: level (log10 ratio to DMSO vehicle control); higher = higher biomarker level / cell amount than vehicle control
Conditions in all cases: in DMSO
Methotrexate = compound: CN(Cc1cnc2nc(N)nc(N)c2n1)c1ccc(C(=O)N[C@@H](CCC(=O)O)C(=O)O)cc1 [Methotrexate]
Procedure: (§1)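 BioMAP Diversity Plus panel of 12 human primary cell co-culture systems (3C, 4H, LPS, SAg, BT, BF4T, BE3C, CASM3C, HDF3CGF, KF3CT, MyoF, Mphg). Compounds were added 1 h before stimulation and left for 24 h (MyoF 48 h; BT 72 h for soluble read-outs or 6 d for IgG). Biomarkers were read by ELISA, cytotoxicity by SRB, PBMC viability and proliferation by Alamar Blue. Each well value was divided by the mean of 8 DMSO control wells on the same plate and log10 transformed; duplicate blinded samples were tested at 4 concentrations.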

[1] = compound: O=C(Cl)C(F)(F)C(F)(F)C(F)(F)C(=O)Cl [Hexafluoroglutaryl chloride]
Procedure: as §1

Tetrafluorosuccinic acid = compound: O=C(O)C(F)(F)C(F)(F)C(=O)O [Tetrafluorosuccinic acid]
Procedure: as §1

[2] = compound: O=S(=O)(O)CCC(F)(F)C(F)(F)C(F)(F)C(F)(F)F [4:2 Fluorotelomer sulfonic acid]
Procedure: as §1

[3] = compound: O=S(=O)(OCC(F)(F)F)C(F)(F)C(F)(F)C(F)(F)C(F)(F)F [2,2,2-Trifluoroethyl perfluorobutanesulfonate]
Procedure: as §1

[4] = compound: OCCCCC(F)(F)C(F)(F)C(F)(F)C(F)(F)F [4:4 Fluorotelomer alcohol]
Procedure: as §1

## SAg:CD38
Methotrexate; 1500 nM
  level (log10): 0.037 ± 0.0099
Methotrexate; 4400 nM
  level (log10): -0.0175 ± 0.005
Methotrexate; 13000 nM
  level (log10): 0.031 ± 0.0085
Methotrexate; 40000 nM
  level (log10): 0.006 ± 0.028
[1]; 6700 nM
  level (log10): -0.021 ± 0.025
[1]; 20000 nM
  level (log10): -0.031 ± 0.034
[1]; 60000 nM
  level (log10): -0.031 ± 0.055
Tetrafluorosuccinic acid; 6700 nM
  level (log10): -0.003 ± 0.027
Tetrafluorosuccinic acid; 20000 nM
  level (log10): 0.001 ± 0.0028
Tetrafluorosuccinic acid; 60000 nM
  level (log10): 0.006 ± 0.027
[2]; 6700 nM
  level (log10): -0.0135 ± 0.028
[2]; 20000 nM
  level (log10): -0.0415 ± 0.019
[2]; 60000 nM
  level (log10): -0.0245 ± 0.005
[3]; 6700 nM
  level (log10): -0.0185 ± 0.0092
[3]; 20000 nM
  level (log10): -0.012 ± 0.0071
[3]; 60000 nM
  level (log10): -0.0475 ± 0.032
[4]; 6700 nM
  level (log10): -0.001 ± 0.028
[4]; 20000 nM
  level (log10): -0.0075 ± 0.018
[4]; 60000 nM
  level (log10): -0.0165 ± 0.023

## 3C:HLA-DR
Methotrexate; 1500 nM
  level (log10): -0.014 ± 0.031
Methotrexate; 4400 nM
  level (log10): -0.012 ± 0.038
Methotrexate; 13000 nM
  level (log10): -0.013 ± 0.025
Methotrexate; 40000 nM
  level (log10): -0.011 ± 0.03
[1]; 6700 nM
  level (log10): -0.008 ± 0.023
[1]; 20000 nM
  level (log10): -0.006 ± 0.013
[1]; 60000 nM
  level (log10): -0.0085 ± 0.0035
Tetrafluorosuccinic acid; 6700 nM
  level (log10): 0.0005 ± 0.025
Tetrafluorosuccinic acid; 20000 nM
  level (log10): -0.0075 ± 0.0021
Tetrafluorosuccinic acid; 60000 nM
  level (log10): -0.0045 ± 0.032
[2]; 6700 nM
  level (log10): -0.019 ± 0.0028
[2]; 20000 nM
  level (log10): -0.0095 ± 0.0078
[2]; 60000 nM
  level (log10): -0.005 ± 0.028
[3]; 6700 nM
  level (log10): -0.01 ± 0.011
[3]; 20000 nM
  level (log10): -0.0135 ± 0.0092
[3]; 60000 nM
  level (log10): -0.032 ± 0.0014
[4]; 6700 nM
  level (log10): -0.002 ± 0.042
[4]; 20000 nM
  level (log10): -0.0065 ± 0.026
[4]; 60000 nM
  level (log10): 0.006 ± 0.033

## BT:sIL-17F
Methotrexate; 1500 nM
  level (log10): -0.039 ± 0.11
Methotrexate; 4400 nM
  level (log10): -0.02 ± 0.025
Methotrexate; 13000 nM
  level (log10): -0.064 ± 0.088
Methotrexate; 40000 nM
  level (log10): -0.179 ± 0.075
[1]; 6700 nM
  level (log10): 0.0195 ± 0.09
[1]; 20000 nM
  level (log10): -0.095 ± 0.0071
[1]; 60000 nM
  level (log10): -0.0065 ± 0.005
Tetrafluorosuccinic acid; 6700 nM
  level (log10): 0.0105 ± 0.026
Tetrafluorosuccinic acid; 20000 nM
  level (log10): 0.0175 ± 0.043
Tetrafluorosuccinic acid; 60000 nM
  level (log10): -0.0215 ± 0.033
[2]; 6700 nM
  level (log10): -0.0025 ± 0.0035
[2]; 20000 nM
  level (log10): -0.009 ± 0.13
[2]; 60000 nM
  level (log10): 0.077 ± 0.021
[3]; 6700 nM
  level (log10): 0.003 ± 0.023
[3]; 20000 nM
  level (log10): 0.0145 ± 0.0064
[3]; 60000 nM
  level (log10): -0.0275 ± 0.005
[4]; 6700 nM
  level (log10): -0.0645 ± 0.0092
[4]; 20000 nM
  level (log10): -0.107 ± 0.015
[4]; 60000 nM
  level (log10): -0.161 ± 0.15

## SAg:CD40
Methotrexate; 1500 nM
  level (log10): -0.02 ± 0.0042
Methotrexate; 4400 nM
  level (log10): -0.0525 ± 0.018
Methotrexate; 13000 nM
  level (log10): -0.0055 ± 0.079
Methotrexate; 40000 nM
  level (log10): -0.0305 ± 0.088
[1]; 6700 nM
  level (log10): 0.0105 ± 0.042
[1]; 20000 nM
  level (log10): 0.0085 ± 0.0021
[1]; 60000 nM
  level (log10): -0.0085 ± 0.043
Tetrafluorosuccinic acid; 6700 nM
  level (log10): 0 ± 0.023
Tetrafluorosuccinic acid; 20000 nM
  level (log10): 0.001 ± 0.0014
Tetrafluorosuccinic acid; 60000 nM
  level (log10): -0.018 ± 0.0071
[2]; 6700 nM
  level (log10): -0.006 ± 0.0071
[2]; 20000 nM
  level (log10): 0.0015 ± 0.019
[2]; 60000 nM
  level (log10): -0.0225 ± 0.039
[3]; 6700 nM
  level (log10): -0.0165 ± 0.018
[3]; 20000 nM
  level (log10): -0.019 ± 0.017
[3]; 60000 nM
  level (log10): -0.0635 ± 0.049
[4]; 6700 nM
  level (log10): 0.01 ± 0.016
[4]; 20000 nM
  level (log10): 0.014 ± 0.0042
[4]; 60000 nM
  level (log10): 0.005 ± 0.0042

## BT:Secreted IgG
Methotrexate; 1500 nM
  level (log10): -1.302 ± 0.011
Methotrexate; 4400 nM
  level (log10): -1.31 ± 0.079
Methotrexate; 13000 nM
  level (log10): -1.33
Methotrexate; 40000 nM
  level (log10): -1.26
[1]; 6700 nM
  level (log10): 0.012 ± 0.024
[1]; 20000 nM
  level (log10): 0.0205 ± 0.012
[1]; 60000 nM
  level (log10): 0.0115 ± 0.0035
Tetrafluorosuccinic acid; 6700 nM
  level (log10): -0.0035 ± 0.033
Tetrafluorosuccinic acid; 20000 nM
  level (log10): 0.0055 ± 0.011
Tetrafluorosuccinic acid; 60000 nM
  level (log10): 0.0155 ± 0.0035
[2]; 6700 nM
  level (log10): 0.006 ± 0.052
[2]; 20000 nM
  level (log10): 0.021 ± 0.061
[2]; 60000 nM
  level (log10): 0.0055 ± 0.054
[3]; 6700 nM
  level (log10): -0.0615 ± 0.043
[3]; 20000 nM
  level (log10): -0.0585 ± 0.016
[3]; 60000 nM
  level (log10): -0.162 ± 0.058
[4]; 6700 nM
  level (log10): 0.01 ± 0.024
[4]; 20000 nM
  level (log10): 0.0045 ± 0.021
[4]; 60000 nM
  level (log10): -0.0055 ± 0.037

## BT:sTNF-alpha
Methotrexate; 1500 nM
  level (log10): -0.067 ± 0.072
Methotrexate; 4400 nM
  level (log10): -0.137 ± 0.11
Methotrexate; 13000 nM
  level (log10): -0.0565 ± 0.023
Methotrexate; 40000 nM
  level (log10): -0.0905 ± 0.1
[1]; 6700 nM
  level (log10): 0.0505 ± 0.025
[1]; 20000 nM
  level (log10): -0.0155 ± 0.037
[1]; 60000 nM
  level (log10): 0.104 ± 0.07
Tetrafluorosuccinic acid; 6700 nM
  level (log10): -0.0875 ± 0.14
Tetrafluorosuccinic acid; 20000 nM
  level (log10): -0.076 ± 0.13
Tetrafluorosuccinic acid; 60000 nM
  level (log10): -0.0795 ± 0.054
[2]; 6700 nM
  level (log10): 0.0815 ± 0.16
[2]; 20000 nM
  level (log10): -0.063 ± 0.021
[2]; 60000 nM
  level (log10): 0.0095 ± 0.012
[3]; 6700 nM
  level (log10): 0.11 ± 0.076
[3]; 20000 nM
  level (log10): 0.165 ± 0.0021
[3]; 60000 nM
  level (log10): 0.189 ± 0.026
[4]; 6700 nM
  level (log10): -0.0875 ± 0.033
[4]; 20000 nM
  level (log10): -0.046 ± 0.13
[4]; 60000 nM
  level (log10): -0.0085 ± 0.17

## 4H:CCL2/MCP-1
Methotrexate; 1500 nM
  level (log10): -0.02 ± 0.011
Methotrexate; 4400 nM
  level (log10): -0.035 ± 0.02
Methotrexate; 13000 nM
  level (log10): -0.0215 ± 0.023
Methotrexate; 40000 nM
  level (log10): 0.0105 ± 0.0021
[1]; 6700 nM
  level (log10): -0.022 ± 0.0042
[1]; 20000 nM
  level (log10): -0.015
[1]; 60000 nM
  level (log10): -0.015
Tetrafluorosuccinic acid; 6700 nM
  level (log10): -0.037 ± 0.021
Tetrafluorosuccinic acid; 20000 nM
  level (log10): -0.04 ± 0.028
Tetrafluorosuccinic acid; 60000 nM
  level (log10): -0.0055 ± 0.086
[2]; 6700 nM
  level (log10): 0.014 ± 0.0014
[2]; 20000 nM
  level (log10): -0.0085 ± 0.028
[2]; 60000 nM
  level (log10): 0.019 ± 0.0071
[3]; 6700 nM
  level (log10): -0.0345 ± 0.015
[3]; 20000 nM
  level (log10): -0.046 ± 0.0014
[3]; 60000 nM
  level (log10): -0.0385 ± 0.021
[4]; 6700 nM
  level (log10): 0.0135 ± 0.011
[4]; 20000 nM
  level (log10): -0.016 ± 0.023
[4]; 60000 nM
  level (log10): 0.023 ± 0.055

## BT:sIL-6
Methotrexate; 1500 nM
  level (log10): 0.0125 ± 0.013
Methotrexate; 4400 nM
  level (log10): -0.034 ± 0.1
Methotrexate; 13000 nM
  level (log10): -0.0095 ± 0.059
Methotrexate; 40000 nM
  level (log10): -0.2 ± 0.033
[1]; 6700 nM
  level (log10): -0.0085 ± 0.042
[1]; 20000 nM
  level (log10): 0.008 ± 0.055
[1]; 60000 nM
  level (log10): -0.033 ± 0.023
Tetrafluorosuccinic acid; 6700 nM
  level (log10): -0.0225 ± 0.0064
Tetrafluorosuccinic acid; 20000 nM
  level (log10): -0.018 ± 0.025
Tetrafluorosuccinic acid; 60000 nM
  level (log10): -0.033 ± 0.011
[2]; 6700 nM
  level (log10): 0.047 ± 0.041
[2]; 20000 nM
  level (log10): -0.0105 ± 0.011
[2]; 60000 nM
  level (log10): -0.052 ± 0.13
[3]; 6700 nM
  level (log10): 0.089 ± 0.0085
[3]; 20000 nM
  level (log10): 0.158 ± 0.02
[3]; 60000 nM
  level (log10): 0.231 ± 0.033
[4]; 6700 nM
  level (log10): 0.036 ± 0.033
[4]; 20000 nM
  level (log10): -0.0255 ± 0.005
[4]; 60000 nM
  level (log10): -0.069 ± 0.09
